Data taken from patent US20260200982A1, “HER RECEPTOR DERIVED PEPTIDES AND METHODS OF USE THEREOF” (Ramot at Tel-Aviv University Ltd., priority 2022, published 2026).
Entries after “also recorded” stand apart in the source; their conditions may differ. The star is where a group is joined. Myristoyl = CCCCCCCCCCCCCC(=O)*

Assays:
MCF7 breast cancer cells = type: cell-based, human; details: MCF7
Source text: (§1) Cell lines—Human breast cancer cell lines SKBR3 [Peles E et al. EMBO J. (1993) 12(3):961-71] and MCF7 [Faigenbloom L et al., Mol Syst Biol. (2015) 11(12):845] and human glioblastoma U87 [Goldberg L et al. Cancer Res. (2006) 66(24):11709-17] cell line, as well as Rat-1 fibroblast cells and H-Ras-transformed Rat-1 cells (EJ cells) [Marom M et al. J Biol Chem. (1995) 270(38):22263-70] and human Panc-1 and MIA PaCa-2 pancreatic cell lines (Rak R et al. Oncoscience. 2014 1(1):39-48; Weisz B et al. Oncogene (1999) 18, 2579±2588) were all grown in Dulbecco's modified Eagle's medium (DMEM; Biological Industries, Beithaemek, Israel). Human colorectal cancer cell lines DLD-1 (ATTC Cat No. CCL-221), HCT-116 (ATTC Cat No. CCL-247) and LNCaP prostate cancer cells were grown in Roswell Park Memorial Institute 1640 (RPMI 1640) medium and McCoy's 5A media, respectively (Sigma-Aldrich). All media were supplemented with antibiotics and 10% heat-inactivated fetal bovine serum (FBS; Gibco). Human breast cell line MCF10A [Bott A et al. Oncotarget. (2017) 8(27):43897-43914] was grown in Dulbeco's Modified Eagle's Medium/Nutrient Mixture F-12 HAM medium (DMEM F-12 HAM; Sigma-Aldrich), supplemented with antibiotics, 5% inactivated horse serum (HS; Invitrogen), 2 mM L-glutamine (Biological Industries, Beithaemek, Israel), 0.1 μg/ml cholera toxin (Sigma-Aldrich), 0.5 μg/ml hydrocortisone (Sigma-Aldrich), 10 μg/ml insulin (Biological Industries, Beithaemek, Israel) and 2 ng/ml EGF (R&D Systems). Cells were incubated at 37° C. in 5% CO2 in air, and the medium was changed every 3-4 days. Cells were passaged in trypsin/disodium ethylenediaminetetraacetic acid (Biological Industries, Beithaemek, Israel) when confluency reached 70%. One day prior to treatment the cells were plated at ~50% confluency in a medium supplemented with 10% FBS or 5% HS, accordingly.
(§2) Methylene blue viability assay—Cells were plated in 96-wells plates at cell densities of 1.5×10^3 (EJ, DLD-1), 3×10^3 (Rat-1, HCT-116, U87), 5×10^3 (SKBR3, MCF7) and 6×10^3 (MCF10A) cells/well. […] Cell number determination was performed as described previously. IC-50 values were calculated using a non-linear regression model (logarithmic inhibitor vs. normalized response-variable slope) with the GraphPad Prism 6 software.

[1] = tested on: SKBR3 breast cancer cells; type: cell-based, human
Source text: as §1, §2

[2] = tested on: LNCaP prostate cancer cells; assay: Methylene blue viability assay, LNCaP; type: cell-based, human; details: 72 hours, FIGS. 4B and 4C, read-out: IC50 (cell viability)
Source text: Cell lines—Human breast cancer cell lines SKBR3 [Peles E et al. EMBO J. (1993) 12(3):961-71] and MCF7 [Faigenbloom L et al., Mol Syst Biol. (2015) 11(12):845] and human glioblastoma U87 [Goldberg L et al. Cancer Res. (2006) 66(24):11709-17] cell line, as well as Rat-1 fibroblast cells and H-Ras-transformed Rat-1 cells (EJ cells) [Marom M et al. J Biol Chem. (1995) 270(38):22263-70] and human Panc-1 and MIA PaCa-2 pancreatic cell lines (Rak R et al. Oncoscience. 2014 1(1):39-48; Weisz B et al. Oncogene (1999) 18, 2579±2588) were all grown in Dulbecco's modified Eagle's medium (DMEM; Biological Industries, Beithaemek, Israel). Human colorectal cancer cell lines DLD-1 (ATTC Cat No. CCL-221), HCT-116 (ATTC Cat No. CCL-247) and LNCaP prostate cancer cells were grown in Roswell Park Memorial Institute 1640 (RPMI 1640) medium and McCoy's 5A media, respectively (Sigma-Aldrich). All media were supplemented with antibiotics and 10% heat-inactivated fetal bovine serum (FBS; Gibco). Human breast cell line MCF10A [Bott A et al. Oncotarget. […]
Methylene blue viability assay—Cells were plated in 96-wells plates at cell densities of 1.5×10^3 (EJ, DLD-1), 3×10^3 (Rat-1, HCT-116, U87), 5×10^3 (SKBR3, MCF7) and 6×10^3 (MCF10A) cells/well. […] IC-50 values were calculated using a non-linear regression model (logarithmic inhibitor vs. normalized response-variable slope) with the GraphPad Prism 6 software.

[3] = tested on: Panc-1 (pancreatic cancer) tumor xenografts; assay: Pancreatic Tumor Growth in Nude Mice; type: in vivo; details: Panc-1 xenografts, 25 μg intraperitoneal daily, FIGS. 9A-C
Experimental: (§3) Pancreatic Tumor Growth in Nude Mice—The study was conducted according to the NIH Guidelines for Use and Care of Laboratory Animals and following the approval by Animal Care Committee of the Tel Aviv University. Nude CD1-Nu mice (25-30 g) housed in barrier facilities on a 12-h light/dark cycle one week prior to the injection of tumor cells (day zero). On day zero, 2×10^6 Panc 1 cells in 0.1 ml of PBS were implanted subcutaneously just above the right femoral joint. Tumor size was measured every 3-4 days. When the tumors were apparently seen and the calculated tumor size was 40 mm^3, the animals were divided randomly into two groups of mice (control vehicle treated and myr-NLS (SEQ ID NO: 5) treated; 8 mice per group). Treatment with the myr-NLS (SEQ ID NO: 5) was performed by intraperitoneal injection of 25 μg in 100 μl PBS (or 100 μl PBS for control mice) every day. Tumors size was measured 3 times a week. At the end of the experiment, the mice were sacrificed, and the tumors were dissected and used for further analysis.

[4] = tested on: DLD-1 colon cancer tumor xenografts; assay: Colon Tumor Growth in Nude Mice; type: in vivo; details: DLD-1 xenografts, 25 μg/100 μl PBS intraperitoneal daily, FIGS. 14A-C
Experimental: Colon Tumor Growth in Nude Mice—Nude CD1-Nu mice (25-30 g) housed in barrier facilities on a 12-h light/dark cycle one week prior to the injection of tumor cells (day zero). On day zero, 5×10^6 DLD-1 cells were implanted subcutaneously just above the right femoral joint. Tumor size was measured every 3-4 days. When the tumors were apparently seen, the animals were divided randomly into three groups of mice [control vehicle treated, myr-NLS1 (SEQ ID NO: 5), myr-NLS4 (SEQ ID NO: 17)]. Treatment was performed by intraperitoneal injection of 25 μg in 100 μl PBS every day. Mice were weighed and tumors size was measured 3 times a week. At the end of the experiment, the mice were sacrificed, and the tumors were dissected and used for further analysis.

nucleolin = nucleolin (Homo sapiens, UniProt P19338); assay: Western blot analysis of dissected Panc-1 tumors, nucleolin; type: in vivo; design: endogenous in cells; host or cells: Panc-1; details: Panc-1 tumor lysates; FIGS. 10A-C
Experimental: as §3
Western blot analysis—Half of each tumor was homogenized in lysis buffer, using a Potter-Elvehjem manual homogenizer, cleared and kept at −70° C. […] Immunoreactive bands were detected with the enhanced chemiluminescence reagent (Luminata Crescendo Western HRP). Densitometric quantification analysis of the resulted images was done using ImageJ program. […]

Chain of nucleolin (P19338 whole entry): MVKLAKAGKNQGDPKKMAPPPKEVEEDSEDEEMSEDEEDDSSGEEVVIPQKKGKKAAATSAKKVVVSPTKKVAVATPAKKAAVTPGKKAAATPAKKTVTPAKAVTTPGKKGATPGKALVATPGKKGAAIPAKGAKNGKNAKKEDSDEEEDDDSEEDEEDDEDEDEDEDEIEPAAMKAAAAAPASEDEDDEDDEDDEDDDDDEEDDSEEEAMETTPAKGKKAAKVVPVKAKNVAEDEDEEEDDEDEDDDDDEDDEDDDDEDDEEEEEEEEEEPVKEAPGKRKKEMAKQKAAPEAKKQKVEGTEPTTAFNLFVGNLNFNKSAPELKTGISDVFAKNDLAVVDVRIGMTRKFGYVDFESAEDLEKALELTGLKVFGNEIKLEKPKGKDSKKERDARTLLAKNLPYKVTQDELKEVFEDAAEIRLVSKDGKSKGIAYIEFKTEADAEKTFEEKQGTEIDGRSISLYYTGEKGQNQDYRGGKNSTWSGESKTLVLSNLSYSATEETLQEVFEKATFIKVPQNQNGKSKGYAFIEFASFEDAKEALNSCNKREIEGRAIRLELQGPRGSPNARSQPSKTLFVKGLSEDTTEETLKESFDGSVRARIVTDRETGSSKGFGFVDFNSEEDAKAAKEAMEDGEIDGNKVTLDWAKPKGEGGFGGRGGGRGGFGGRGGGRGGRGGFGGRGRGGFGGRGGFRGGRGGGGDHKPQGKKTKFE

Myr-RRRHIVRKRTLRRLL-OH (Myristoyl-RRRHIVRKRTLRRLL-OH; SMILES CCCCCCCCCCCCCC(=O)N[C@@H](CCCNC(=N)N)C(=O)N[C@@H](CCCNC(=N)N)C(=O)N[C@@H](CCCNC(=N)N)C(=O)N[C@@H](Cc1c[nH]cn1)C(=O)N[C@H](C(=O)N[C@H](C(=O)N[C@@H](CCCNC(=N)N)C(=O)N[C@@H](CCCCN)C(=O)N[C@@H](CCCNC(=N)N)C(=O)N[C@H](C(=O)N[C@@H](CC(C)C)C(=O)N[C@@H](CCCNC(=N)N)C(=O)N[C@@H](CCCNC(=N)N)C(=O)N[C@@H](CC(C)C)C(=O)N[C@@H](CC(C)C)C(=O)O)[C@@H](C)O)C(C)C)[C@@H](C)CC) [myr-NLS]
IC50 (MCF7 breast cancer cells; 72 hours, FIGS. 4B and 4C, read-out: IC50 (cell viability)): 23.5 µM
effect on viability as compared to non-transformed MCF10 cells (MCF7 breast cancer cells; FIG. 4C): much more pronounced
viability of SKBR3 breast cancer cells ([1]; 80 μM peptide for 72 hours, FIG. 4A): significantly reduced viability
IC50 ([1]; SKBR3, 72 hours, FIGS. 4B and 4C, read-out: IC50 (cell viability)): 20.6 µM
effect on viability as compared to non-transformed MCF10 cells ([1]; SKBR3, FIG. 4C): much more pronounced
IC50 [2]: 7.6 µM
tumor growth (tumor size, tumor weight) [3]: significantly reduced tumor cell growth; also recorded: inhibits pancreatic tumor growth
tumor growth (tumor size, tumor weight) [4]: significantly reduced tumor cell growth
nucleolin levels in tumors (nucleolin): significant reduction
